According to US20030206972A1, “Compositions containing carotenoids and tocotrienols and having synergistic antioxidant effect” (priority 2000, published 2003):
Several values for one entry are separate records, joined by “and”; a condition that tells them apart may be missing. Equal entries are not always repeated.

Test: Peroxy radical scavenging activity (BODIPY 581/591 C11 fluorescence, AMVN radical generator, microplate); synergy by CalcuSyn median-effect method
Format: biochemical
Settings: test material alone, 50 percent inhibition of peroxy radical formation, parenthetic values 95% confidence intervals
Protocol: As a peroxy radical generator, 2,2′-azobis-2,4-dimethyl valeronitrile (AMVN) was used and obtained from WAKO Chemicals (Richmond, Va.). All standards were of the highest purity commercially available. Additionally, the solvents were of HPLC grade.
Fluorescence measurements were performed using a Packard FluoroCount microplate fluorometer equipped with a temperature-controlled plate holder. All measurements were preformed in a 96-well polypropylene plate with stirring.
Reactions in octane:butyronitrile (9:1, v/v) were carried out at 30° C. All fluorescence measurements were recorded every 15 minutes for 1 hour at excitation wavelengths of 570 nm, with emission at 620 nm. The net protection (area under the curve, AUC) provided by an antioxidant sample was calculated using the trapezoid method. […] The percent inhibition of each dose was calculated as:
[AUC(dose)−AUC(AMVN)]/[AUC(BODIPY)−AUC(AMVN)]×100.
Stock solutions of the test samples were made up in chloroform and 6 μL were added to the reaction mixture to achieve the stated concentrations. The reaction was initiated by the addition of the AMVN and fluorometric readings were recorded every 15 minutes for one hour.
Synergy between astaxanthin and the sample of mixed tocotrienols was assessed using CalcuSyn (BIOSOFT, biosoft.com).
Cm is determined from the x-intercept of the median-effect plot. The fraction affected by the concentration of the test material is fa and the fraction unaffected by the concentration is fu (fu=1−fa). The exponent m is the parameter signifying the sigmoidicity or shape of the dose-effect curve. It is estimated by the slope of the median-effect plot.
The median-effect plot is a plot of x=log(C) vs y=log(fa/fu) and is based on the logarithmic form of Chou's median-effect equation. The goodness of fit for the data to the median-effect equation is represented by the linear correlation coefficient r of the median-effect plot. Usually, the experimental data from enzyme or receptor systems have an r>0.96, from tissue culture an r>0.90 and from animal systems an r>0.85.
Synergy of test components is quantified using the combination index (CI) parameter. […] The equation determines only the additive effect rather than synergism or antagonism.
Dose-response curves were described with each test article separately and then in a two-way combination.

| SMILES | IC50 | IC50 (listed as astaxanthin) |
| --- | --- | --- |
| CC1=C(/C=C/C(C)=C/C=C/C(C)=C/C=C/C=C(C)/C=C/C=C(C)/C=C/C2=C(C)C(=O)[C@@H](O)CC2(C)C)C(C)(C)C[C@H](O)C1=O [Astaxanthin, 3,3′-dihydroxy-β,β-carotene-4,4′-dieto-β-carotene] | 150 (115-194) μg/mL and 182 (145-227) μg/mL | 196 µg/mL and 195 µg/mL |
| CC1=C[C@H](O)CC(C)(C)[C@H]1/C=C/C(C)=C/C=C/C(C)=C/C=C/C=C(C)/C=C/C=C(C)/C=C/C1=C(C)C[C@@H](O)CC1(C)C [Lutein, lutein] | 38 (29-50) μg/mL |  |
| CC1=C(/C=C/C(C)=C/C=C/C(C)=C/C=C/C=C(C)/C=C/C=C(C)/C=C/C2=C(C)CCCC2(C)C)C(C)(C)CCC1 [β-Carotene, β-carotene] | 196 (171-226) μg/mL and 135 (85-215) μg/mL |  |
